Results from patent US11478477B2, “Method for treating cancer by combination of FAK/ALK/ROS1 inhibitor and EGFR inhibitor” (ASCENTAGE PHARMA (SUZHOU) CO., LTD., priority 2018, dated 2022).
Where two headings read alike, the source gives them in different places. Marks after values point to notes of the source that are not given here. Values belong to the molecule of their own block, whether it stands above or below them.

Columns and labels:
NCI-H1975 tumor cells = test: WST (CCK-8) anti-proliferation experiment, single drugs and combinations; format: cell-based; settings: Homo sapiens, NCI-H1975, 72 hours
Description: Cell plating: Anti-proliferative effects were detected by a CCK-8 (Cell Counting Kit-8) assay based on water soluble tetrazolium salt (WST). The cells were seeded in 96-well plates, and only 95 μL of complete medium was added to each negative control group. 95 μL of complete medium cell suspension was added to each well to be tested, and the cell density was […]. Dosing (protection from light): In 96-well culture plates, according to the sensitivity of different cells to different drugs, the highest concentration was selected as 10 μM, and 9 concentrations were obtained by serial dilution in a ratio of 1:3.5 μL of compound was added to each well and 2-3 replicate wells were made for per concentration. After the compound was added, 96-well plates were incubated in a 5% CO2 incubator at 37° C. After 72 hours of action by using 9 different concentrations of the drug with 3 fixed doses of Compound 5, the combination effect of Compound 5 and the drug was tested. Reading: At the end of the culture, the old solution was removed from the well to be tested, and 100 μl/well CCK-8 test solution (containing 10% CCK-8, 5% FBS in the corresponding medium) was added. The plates were continuously incubated at 37° C. for 2-4 hours in a CO2 incubator. The OD values were measured using a microplate reader (SpectraMax Plus 384, Molecular Devices, LLC., US) under A450 nm. […] (O.D. of test well−O.D. of blank control well)/(O.D. of cell control well−O.D. of blank control well)×100%. IC50 values were calculated using Graphpad Prism 6.0 software for nonlinear regression data analysis method.

[1] = tested on: human NCI-H1975 lung cancer mouse xenograft tumor model; test: Example 4: Compound 5 with AZD9291 or afatinib in xenograft tumor model; format: in vivo; settings: for RTV on Day 15 after administration (mean ± standard error) / T/C on Day 15 after administration (%): Compound 5 100 mg/kg, AZD9291 5 then 2 mg/kg, afatinib 10 then 5 mg/kg, orally, once per day
Description: Subsequently, a H1975 cell-derived mouse xenograft tumor model was established to evaluate the anti-tumor effects of Compound 5 in combination with EGFR inhibitor AZD9291 (osimertinib) or afatinib.

[2] = tested on: human NCI-H1975 xenograft tumor model; test: Example 8: Compound 5 or Ensartinib with Avitinib in xenograft tumor model; format: in vivo, mouse; settings: Compound 5 50 mg/kg; Ensartinib 20 mg/kg; Avitinib 10 mg/kg; orally, once per day, 21 days
Description: (§1) The dosage regimen was as follows:

[3] = tested on: human NCI-H1975 xenograft tumor model; test: Example 9: Compound 5 with AZD9291 or Avitinib in xenograft tumor model; format: in vivo, mouse; settings: Compound 5 50 mg/kg, AZD9291 2 mg/kg, Avitinib 10 mg/kg, orally, once per day
Description: as §1

[4] = single EGFR inhibitor, read-out: Compound B IC50

IC50 (NCI-H1975 tumor cells; single drug, read-out: Compound A IC50): 3550 ± 1110 nM
SMILES: Cc1cc(Nc2ncc(Cl)c(Nc3ccccc3S(=O)(=O)C(C)C)n2)c(OC(C)C)cc1C1=CCN(C2CCOCC2)CC1 [Compound 5, 5-chloro-N^2-(2-isopropoxy-5-methyl-4-(1-(tetrahydro-2H-pyran-4-yl)-1,2,3,6-tetrahydropyridin-4-yl)phenyl)-N^4-(2-(isopropylsulfonyl)phenyl)pyrimidine-2,4-diamine]
RTV on Day 15 after administration (mean ± standard error) [1]: 13.8 ± 1.8
T/C on Day 15 after administration (%) [1]: 66.0%
RTV on Day 21 after administration (mean ± standard error) [2]: 12.8 ± 1.5
T/C on Day 21 after administration (%) [2]: 80%
RTV on Day 11 after administration (mean ± standard error) [3]: 8.2 ± 0.5
T/C on Day 11 after administration (%) [3]: 113.8%
RTV on Day 15 after administration (mean ± standard error) [3]: 10.3 ± 1.1
T/C on Day 15 after administration (%) [3]: 95.6%

SMILES: C=CC(=O)Nc1cc(Nc2nccc(-c3cn(C)c4ccccc34)n2)c(OC)cc1N(C)CCN(C)C [AZD9291, osimertinib]
IC50 (NCI-H1975 tumor cells; [4]): 410 nM
RTV on Day 15 after administration (mean ± standard error) [1]: 1.4 ± 0.2
T/C on Day 15 after administration (%) [1]: 6%
tumor after discontinuation of administration ([1]; after discontinuation of administration): tumor rebound was gradually observed
RTV on Day 11 after administration (mean ± standard error) [3]: 1.6 ± 0.3
T/C on Day 11 after administration (%) [3]: 1.6** %
RTV on Day 15 after administration (mean ± standard error) [3]: 1.8 ± 0.2
T/C on Day 15 after administration (%) [3]: 16.8%

IC50 (NCI-H1975 tumor cells; [4]): 337 nM
SMILES: CN(C)C/C=C/C(=O)Nc1cc2c(Nc3ccc(F)c(Cl)c3)ncnc2cc1O[C@H]1CCOC1 [afatinib]
RTV on Day 15 after administration (mean ± standard error) [1]: 15.5 ± 1.5
T/C on Day 15 after administration (%) [1]: 74%
T/C on Day 15 after administration (%) ([1]; listed as Afatinib): 74.0%

SMILES: C[C@@H]1CN(C(=O)c2ccc(NC(=O)c3cc(O[C@H](C)c4c(Cl)ccc(F)c4Cl)c(N)nn3)cc2)C[C@H](C)N1 [Ensartinib]
RTV on Day 21 after administration (mean ± standard error) [2]: 9.5 ± 1.1
T/C on Day 21 after administration (%) [2]: 61.3%

SMILES: C=CC(=O)Nc1cccc(Oc2nc(Nc3ccc(N4CCN(C)CC4)c(F)c3)nc3[nH]ccc23)c1 [Avitinib]
RTV on Day 21 after administration (mean ± standard error) [2]: 13.29 ± 2.65
T/C on Day 21 after administration (%) [2]: 83.1%
RTV on Day 11 after administration (mean ± standard error) [3]: 5.9 ± 0.4
T/C on Day 11 after administration (%) [3]: 82.0%
RTV on Day 15 after administration (mean ± standard error) [3]: 7.8 ± 0.7
T/C on Day 15 after administration (%) [3]: 72.4%
